Tested on: BJAB cells
Assay: BJAB cell proliferation (Cell Titer Glo)
Assay type: cell-based
Settings: not given
Method in brief: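 BJAB cells exposed to serially diluted compounds (0.1% DMSO final) for about 72 h at 37 °C. Proliferation read by Cell Titer Glo luminescence as percent of untreated controls; EC50 from non-linear regression of dose-response data.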

Which EC50 does the source give for `Cc1nn(-c2nc(-c3ccc(Cl)c(Cl)c3)c(SC(C)C)s2)c(C(=O)O)c1-c1cccc(F)c1` [Compound 151, 1-(4-(3,4-dichlorophenyl)-5-(isopropylthio)thiazol-2-yl)-4-(3-fluorophenyl)-3-methyl-1H-pyrazole-5-carboxylic Acid] here?
Its EC50 is “A, B”.

Same assay, conditions: Homo sapiens, read-out: EC50

With `Cc1nn(-c2nc(-c3ccc(Cl)c(Cl)c3)c(SC(C)C)s2)c(C(=O)O)c1-c1cnc2ccccn12` [Compound 149, 1-(4-(3,4-dichlorophenyl)-5-(isopropylthio)thiazol-2-yl)-4-(imidazo[1,2-a]pyridin-3-yl)-3-methyl-1H-pyrazole-5-carboxylic acid] as the compound, how does the EC50 read?
The EC50 was 5 to 10 µM.

How did the EC50 turn out when `Cc1nn(-c2nc(-c3ccc(Cl)c(Cl)c3)c(SC(C)C)s2)c(C(=O)O)c1-c1cc(O)cc(F)c1` [Compound 152, 1-(4-(3,4-dichlorophenyl)-5-(isopropylthio)thiazol-2-yl)-4-(3-fluoro-5-hydroxyphenyl)-3-methyl-1H-pyrazole-5-carboxylic Acid] was run?
Its EC50 is 5 to 10 µM.

Which EC50 does the source give for `Cc1cc(N)cc(-c2c(C)nn(-c3nc(-c4ccc(Cl)c(Cl)c4)c(SC(C)C)s3)c2C(=O)O)c1` [Compound 153, 4-(3-amino-5-methylphenyl)-1-(4-(3,4-dichlorophenyl)-5-(isopropylthio)thiazol-2-yl)-3-methyl-1H-pyrazole-5-carboxylic acid] here?
Its EC50 is > 25 µM.

How did the EC50 turn out when `Cc1nn(-c2nc(-c3ccc(Cl)c(Cl)c3)c(SC(C)C)s2)c(C(=O)O)c1-c1cc(O)cc(Cl)c1` [Compound 154, 4-(3-chloro-5-hydroxyphenyl)-1-(4-(3,4-dichlorophenyl)-5-(isopropylthio)thiazol-2-yl)-3-methyl-1H-pyrazole-5-carboxylic Acid] was run?
The EC50 was 10 to 25 µM.

`Cc1nn(-c2nc(-c3ccc(Cl)c(Cl)c3)c(SC(C)C)s2)c(C(=O)O)c1-c1cccc2ccn(C)c12` [Compound 155, 1-(4-(3,4-dichlorophenyl)-5-(isopropylthio)thiazol-2-yl)-3-methyl-4-(1-methyl-1H-indol-7-yl)-1H-pyrazole-5-carboxylic Acid] was tested. Which EC50 did it give?
The EC50 was 5 to 10 µM.

Which EC50 does the source give for `CC(C)Sc1sc(-n2cccn2)nc1-c1ccc(Cl)c(Cl)c1` [Compound 156, 4-(3,4-dichlorophenyl)-5-(isopropylthio)-2-(1H-pyrazol-1-yl)thiazole] here?
Its EC50 is > 25 µM.

Which EC50 does the source give for `Cc1cc(-c2c(C)nn(-c3nc(-c4ccccc4Cl)c(SC(C)C)s3)c2C(=O)O)cc(C)n1` [Compound 157, 1-(4-(2-chlorophenyl)-5-(isopropylthio)thiazol-2-yl)-4-(2,6-dimethylpyridin-4-yl)-3-methyl-1H-pyrazole-5-carboxylic Acid] here?
The EC50 was 1 to 5 µM.

For `Cc1cc(-c2c(C)nn(-c3nc(-c4cccc(Cl)c4)c(SC(C)C)s3)c2C(=O)O)cc(C)n1` [Compound 158, 1-(4-(3-chlorophenyl)-5-(isopropylthio)thiazol-2-yl)-4-(2,6-dimethylpyridin-4-yl)-3-methyl-1H-pyrazole-5-carboxylic Acid], which EC50 is on record?
The EC50 was 5 to 10 µM.

Which EC50 does the source give for `Cc1cc(-c2c(C)nn(-c3nc(-c4ccc(Cl)cc4)c(SC(C)C)s3)c2C(=O)O)cc(C)n1` [Compound 159, 1-(4-(4-chlorophenyl)-5-(isopropylthio)thiazol-2-yl)-4-(2,6-dimethylpyridin-4-yl)-3-methyl-1H-pyrazole-5-carboxylic Acid] here?
The EC50 was < 1 µM.

For `Cc1cc(-c2c(C)nn(-c3nc(-c4ccc(Cl)cc4Cl)c(SC(C)C)s3)c2C(=O)O)cc(C)n1` [Compound 160, 1-(4-(2,4-dichlorophenyl)-5-(isopropylthio)thiazol-2-yl)-4-(2,6-dimethylpyridin-4-yl)-3-methyl-1H-pyrazole-5-carboxylic Acid], which EC50 is on record?
Its EC50 is < 1 µM.

How did the EC50 turn out when `Cc1cc(-c2c(C)nn(-c3nc(-c4cc(Cl)ccc4Cl)c(SC(C)C)s3)c2C(=O)O)cc(C)n1` [Compound 161, 1-(4-(2,5-dichlorophenyl)-5-(isopropylthio)thiazol-2-yl)-4-(2,6-dimethylpyridin-4-yl)-3-methyl-1H-pyrazole-5-carboxylic acid] was run?
Its EC50 is 5 to 10 µM.

With `Cc1cc(-c2c(C)nn(-c3nc(C#Cc4ccccc4)c(SC(C)C)s3)c2C(=O)O)cc(C)n1` [Compound 162, 4-(2,6-dimethylpyridin-4-yl)-1-(5-(isopropylthio)-4-(phenylethynyl)thiazol-2-yl)-3-methyl-1H-pyrazole-5-carboxylic acid] as the compound, how does the EC50 read?
The EC50 was 5 to 10 µM.

For `Cc1cc(-c2c(C)nn(-c3nc(Cc4ccccc4)c(SC(C)C)s3)c2C(=O)O)cc(C)n1` [Compound 163, 1-(4-benzyl-5-(isopropylthio)thiazol-2-yl)-4-(2,6-dimethylpyridin-4-yl)-3-methyl-1H-pyrazole-5-carboxylic acid], which EC50 is on record?
The EC50 was 10 to 25 µM.

How did the EC50 turn out when `COc1cc(F)cc(-c2c(C)nn(-c3nc(-c4ccc(Cl)c(Cl)c4)c(SC(C)C)s3)c2C(=O)O)c1` [Compound 164, 1-(4-(3,4-dichlorophenyl)-5-(isopropylthio)thiazol-2-yl)-4-(3-fluoro-5-methoxyphenyl)-3-methyl-1H-pyrazole-5-carboxylic Acid] was run?
Its EC50 is 1 to 5 µM.

How did the EC50 turn out when `COc1cc(C)cc(-c2c(C)nn(-c3nc(-c4ccc(Cl)c(Cl)c4)c(SC(C)C)s3)c2C(=O)O)c1` [Compound 165, 1-(4-(3,4-dichlorophenyl)-5-(isopropylthio)thiazol-2-yl)-4-(3-methoxy-5-methylphenyl)-3-methyl-1H-pyrazole-5-carboxylic Acid] was run?
Its EC50 is 1 to 5 µM.

For `COc1cc(-c2c(C)nn(-c3nc(-c4ccc(Cl)c(Cl)c4)c(SC(C)C)s3)c2C(=O)O)ccn1` [Compound 166, 1-(4-(3,4-dichlorophenyl)-5-(isopropylthio)thiazol-2-yl)-4-(2-methoxypyridin-4-yl)-3-methyl-1H-pyrazole-5-carboxylic acid], which EC50 is on record?
The EC50 was 5 to 10 µM.

With `Cc1cc(-c2c(C)nn(-c3nc(-c4ccc(Cl)c(Cl)c4)c(SC(C)C)s3)c2C(=O)O)ccn1` [Compound 167, 1-(4-(3,4-dichlorophenyl)-5-(isopropylthio)thiazol-2-yl)-3-methyl-4-(2-methylpyridin-4-yl)-1H-pyrazole-5-carboxylic Acid] as the compound, how does the EC50 read?
The EC50 was 1 to 5 µM.

For `Cc1nn(-c2nc(-c3cccc4[nH]ccc34)c(SC(C)C)s2)c(C(=O)O)c1-c1cccc(F)c1` [Compound 168, 1-(4-(1H-indol-4-yl)-5-(isopropylthio)thiazol-2-yl)-4-(3-fluorophenyl)-3-methyl-1H-pyrazole-5-carboxylic acid], which EC50 is on record?
The EC50 was > 25 µM.

Which EC50 does the source give for `Cc1nn(-c2nc(-c3cccc(F)c3)c(SC(C)C)s2)c(C(=O)O)c1-c1cccc2[nH]ccc12` [Compound 169, 1-(4-(3-fluorophenyl)-5-(isopropylthio)thiazol-2-yl)-4-(1H-indol-4-yl)-3-methyl-1H-pyrazole-5-carboxylic acid] here?
Its EC50 is > 25 µM.

Which EC50 does the source give for `Cc1nn(-c2nc(-c3ccc4[nH]ccc4c3)c(SC(C)C)s2)c(C(=O)O)c1-c1cccc(F)c1` [Compound 170, 1-(4-(1H-indol-5-yl)-5-(isopropylthio)thiazol-2-yl)-4-(3-fluorophenyl)-3-methyl-1H-pyrazole-5-carboxylic acid] here?
The EC50 was > 25 µM.

Which EC50 does the source give for `Cc1nn(-c2nc(C#CC3CC3)c(SC(C)C)s2)c(C(=O)O)c1-c1cccc(F)c1` [Compound 171, 1-(4-(cyclopropylethynyl)-5-(isopropylthio)thiazol-2-yl)-4-(3-fluorophenyl)-3-methyl-1H-pyrazole-5-carboxylic acid] here?
Its EC50 is > 25 µM.

With `Cc1nn(-c2nc(C3CC3)c(SC(C)C)s2)c(C(=O)O)c1C1CC1` [Compound 172, 4-cyclopropyl-1-(4-cyclopropyl-5-(isopropylthio)thiazol-2-yl)-3-methyl-1H-pyrazole-5-carboxylic Acid] as the compound, how does the EC50 read?
Its EC50 is > 25 µM.

Which EC50 does the source give for `Cc1nn(-c2nc(-c3ccc(Cl)c(Cl)c3)c(SC(C)C)s2)c(C(=O)O)c1C1CC1` [Compound 173, 4-cyclopropyl-1-(4-(3,4-dichlorophenyl)-5-(isopropylthio)thiazol-2-yl)-3-methyl-1H-pyrazole-5-carboxylic Acid] here?
The EC50 was 10 to 25 µM.

With `Cc1nn(-c2nc(-c3ccc(Cl)c(Cl)c3)c(SC(C)C)s2)c(C(=O)O)c1-c1cc(Cl)cc(OC(C)C)c1` [Compound 174, 4-(3-chloro-5-isopropoxyphenyl)-1-(4-(3,4-dichlorophenyl)-5-(isopropylthio)thiazol-2-yl)-3-methyl-1H-pyrazole-5-carboxylic Acid] as the compound, how does the EC50 read?
Its EC50 is 1 to 5 µM.

Which EC50 does the source give for `Cc1nn(-c2nc(-c3cccc(Cl)c3)c(SC(C)C)s2)c(C(=O)O)c1-c1cccc(F)c1` [Compound 176, 1-(4-(3-chlorophenyl)-5-(isopropylthio)thiazol-2-yl)-4-(3-fluorophenyl)-3-methyl-1H-pyrazole-5-carboxylic Acid] here?
Its EC50 is 5 to 10 µM.

Which EC50 does the source give for `Cc1nn(-c2nc(-c3ccc(Cl)cc3)c(SC(C)C)s2)c(C(=O)O)c1-c1cccc(F)c1` [Compound 177, 1-(4-(4-chlorophenyl)-5-(isopropylthio)thiazol-2-yl)-4-(3-fluorophenyl)-3-methyl-1H-pyrazole-5-carboxylic Acid] here?
Its EC50 is < 1 µM.

How did the EC50 turn out when `Cc1nn(-c2nc(-c3ccc(Cl)cc3Cl)c(SC(C)C)s2)c(C(=O)O)c1-c1cccc(F)c1` [Compound 178, 1-(4-(2,4-dichlorophenyl)-5-(isopropylthio)thiazol-2-yl)-4-(3-fluorophenyl)-3-methyl-1H-pyrazole-5-carboxylic Acid] was run?
The EC50 was 1 to 5 µM.

For `Cc1nn(-c2nc(-c3ccc(-c4cccc(F)c4)nc3)c(SC(C)C)s2)c(C(=O)O)c1Br` [Compound 179, 4-bromo-1-(4-(6-(3-fluorophenyl)pyridin-3-yl)-5-(isopropylthio)thiazol-2-yl)-3-methyl-1H-pyrazole-5-carboxylic Acid], which EC50 is on record?
Its EC50 is 25 to 50 µM.

Which EC50 does the source give for `Cc1cc(-c2c(C)nn(-c3nc(-c4ccc(Cl)c(Cl)c4)c(SC(C)C)s3)c2C(=O)O)cc(O[C@@H]2CCOC2)n1` [Compound 180, (R)-1-(4-(3,4-dichlorophenyl)-5-(isopropylthio)thiazol-2-yl)-3-methyl-4-(2-methyl-6-((tetrahydrofuran-3-yl)oxy)pyridin-4-yl)-1H-pyrazole-5-carboxylic Acid] here?
Its EC50 is 10 to 25 µM.

For `COCCOc1cc(-c2c(C)nn(-c3nc(-c4ccc(Cl)c(Cl)c4)c(SC(C)C)s3)c2C(=O)O)cc(C)n1` [Compound 181, 1-(4-(3,4-dichlorophenyl)-5-(isopropylthio)thiazol-2-yl)-4-(2-(2-methoxyethoxy)-6-methylpyridin-4-yl)-3-methyl-1H-pyrazole-5-carboxylic Acid], which EC50 is on record?
Its EC50 is 10 to 25 µM.

From patent US10537558B2 (Bantam Pharmaceutical, LLC, priority 2015, dated 2020)
